Assay results: the NIST ThermoML archive (doi:10.1021/je4001894)
± gives the expanded uncertainty stated by the source.

Assay: activity coefficient (dimensionless); of the first substance listed, at infinite dilution; xn = mol fraction of the nth substance listed
Conditions: 101 kPa, Liquid, Chromatography, x1 = 0

SMILES | activity coefficient (323.15 K) | activity coefficient (333.15 K) | activity coefficient (343.15 K)
C1CCCCCC1 [cycloheptane] + CCC[N+]1(C)CCCC1.O=S(=O)([N-]S(=O)(=O)C(F)(F)F)C(F)(F)F | 29.1 ± 2 | 43 ± 2.9 | 54.7 ± 3.8
CC1CCCC1 [methylcyclopentane] + CCCC[N+]1(C)CCCC1.O=S(=O)([N-]S(=O)(=O)C(F)(F)F)C(F)(F)F | 8.68 ± 0.59 | 8.24 ± 0.56 | 7.85 ± 0.54
CC(C)OC(C)C [diisopropyl ether] + CCC[N+]1(C)CCCC1.O=S(=O)([N-]S(=O)(=O)C(F)(F)F)C(F)(F)F | 5.88 ± 0.4 | 5.75 ± 0.39 | 5.53 ± 0.38
Cc1ccccc1C [1,2-dimethylbenzene] + CCC[N+]1(C)CCCC1.O=S(=O)([N-]S(=O)(=O)C(F)(F)F)C(F)(F)F | 1.78 ± 0.12 | 1.83 ± 0.12 | 1.87 ± 0.13
CCc1ccccc1 [ethylbenzene] + CCCC[N+]1(C)CCCC1.O=S(=O)([N-]S(=O)(=O)C(F)(F)F)C(F)(F)F | 1.83 ± 0.12 | 1.85 ± 0.12 | 1.87 ± 0.13
C#CCCCC [1-hexyne] + CCC[N+]1(C)CCCC1.O=S(=O)([N-]S(=O)(=O)C(F)(F)F)C(F)(F)F | 3.35 ± 0.23 | 3.18 ± 0.22 | 3.01 ± 0.2
CO [methanol] + CCC[N+]1(C)CCCC1.O=S(=O)([N-]S(=O)(=O)C(F)(F)F)C(F)(F)F | 1.38 ± 0.09 | 1.28 ± 0.08 | 1.15 ± 0.07
C1CCCCC1 [cyclohexane] + CCCC[N+]1(C)CCCC1.O=S(=O)([N-]S(=O)(=O)C(F)(F)F)C(F)(F)F | 8.74 ± 0.6 | 7.96 ± 0.54 | 7.59 ± 0.52
C=CCCCC [hex-1-ene] + CCCC[N+]1(C)CCCC1.O=S(=O)([N-]S(=O)(=O)C(F)(F)F)C(F)(F)F | 7.51 ± 0.51 | 7.21 ± 0.49 | 7.12 ± 0.49
CCCCCCCC [octane] + CCC[N+]1(C)CCCC1.O=S(=O)([N-]S(=O)(=O)C(F)(F)F)C(F)(F)F | 35.8 ± 2.5 | 31.1 ± 2.1 | 30.6 ± 2.1
CO [methanol] + CCCC[N+]1(C)CCCC1.O=S(=O)([N-]S(=O)(=O)C(F)(F)F)C(F)(F)F | 1.4 ± 0.09 | 1.28 ± 0.08 | 1.18 ± 0.08
C#CCCCC [1-hexyne] + CCCC[N+]1(C)CCCC1.O=S(=O)([N-]S(=O)(=O)C(F)(F)F)C(F)(F)F | 2.89 ± 0.2 | 2.87 ± 0.2 | 2.83 ± 0.19
Cc1cccc(C)c1 [1,3-dimethylbenzene] + CCCC[N+]1(C)CCCC1.O=S(=O)([N-]S(=O)(=O)C(F)(F)F)C(F)(F)F | 1.78 ± 0.12 | 1.8 ± 0.12 | 1.83 ± 0.12
CC1CCCCC1 [methylcyclohexane] + CCCC[N+]1(C)CCCC1.O=S(=O)([N-]S(=O)(=O)C(F)(F)F)C(F)(F)F | 11.5 ± 0.79 | 10.7 ± 0.73 | 10.1 ± 0.69
CCC(C)=O [butanone] + CCCC[N+]1(C)CCCC1.O=S(=O)([N-]S(=O)(=O)C(F)(F)F)C(F)(F)F | 0.54 ± 0.04 | 0.5 ± 0.04 | 0.46 ± 0.04
c1ccccc1 [benzene] + CCCC[N+]1(C)CCCC1.O=S(=O)([N-]S(=O)(=O)C(F)(F)F)C(F)(F)F | 0.92 ± 0.06 | 0.93 ± 0.06 | 0.94 ± 0.06
CCC[N+](=O)[O-] [1-nitropropane] + CCCC[N+]1(C)CCCC1.O=S(=O)([N-]S(=O)(=O)C(F)(F)F)C(F)(F)F | 0.74 ± 0.05 | 0.73 ± 0.05 | 0.73 ± 0.05

SMILES | activity coefficient (323.15 K) | activity coefficient (333.15 K) | activity coefficient (343.15 K)
ClCCl [dichloromethane] + CCCC[N+]1(C)CCCC1.O=S(=O)([N-]S(=O)(=O)C(F)(F)F)C(F)(F)F | 0.66 ± 0.05 | 0.7 ± 0.05 | 0.73 ± 0.05
CCC(=O)CC [pentan-3-one] + CCC[N+]1(C)CCCC1.O=S(=O)([N-]S(=O)(=O)C(F)(F)F)C(F)(F)F | 0.84 ± 0.05 | 0.82 ± 0.05 | 0.86 ± 0.06
ClC(Cl)Cl [trichloromethane] + CCCC[N+]1(C)CCCC1.O=S(=O)([N-]S(=O)(=O)C(F)(F)F)C(F)(F)F | 0.83 ± 0.05 | 0.86 ± 0.06 | 0.88 ± 0.06
CCCCCCCCCC [decane] + CCC[N+]1(C)CCCC1.O=S(=O)([N-]S(=O)(=O)C(F)(F)F)C(F)(F)F | 74.7 ± 5.1 | 65.7 ± 4.5 | 60 ± 4.1
CCCCCCCCC [nonane] + CCCC[N+]1(C)CCCC1.O=S(=O)([N-]S(=O)(=O)C(F)(F)F)C(F)(F)F | 42.7 ± 2.9 | 38.3 ± 2.6 | 34.7 ± 2.4
CCCCCC [hexane] + CCC[N+]1(C)CCCC1.O=S(=O)([N-]S(=O)(=O)C(F)(F)F)C(F)(F)F | 16.5 ± 1.1 | 15 ± 1 | 14.1 ± 0.96
C1COCCO1 [1,4-dioxane] + CCC[N+]1(C)CCCC1.O=S(=O)([N-]S(=O)(=O)C(F)(F)F)C(F)(F)F | 0.74 ± 0.05 | 0.74 ± 0.05 | 0.76 ± 0.05
CCOCC [diethyl ether] + CCCC[N+]1(C)CCCC1.O=S(=O)([N-]S(=O)(=O)C(F)(F)F)C(F)(F)F | 2.53 ± 0.17 | 2.54 ± 0.17 | 2.6 ± 0.18
Cc1cccc(C)c1 [1,3-dimethylbenzene] + CCC[N+]1(C)CCCC1.O=S(=O)([N-]S(=O)(=O)C(F)(F)F)C(F)(F)F | 1.97 ± 0.13 | 1.99 ± 0.14 | 2.05 ± 0.14
CCO [ethanol] + CCCC[N+]1(C)CCCC1.O=S(=O)([N-]S(=O)(=O)C(F)(F)F)C(F)(F)F | 1.73 ± 0.12 | 1.57 ± 0.1 | 1.43 ± 0.09
CCN(CC)CC [triethylamine] + CCCC[N+]1(C)CCCC1.O=S(=O)([N-]S(=O)(=O)C(F)(F)F)C(F)(F)F | 7.07 ± 0.48 | 7.07 ± 0.48 | 7.09 ± 0.48
CC#N [acetonitrile] + CCCC[N+]1(C)CCCC1.O=S(=O)([N-]S(=O)(=O)C(F)(F)F)C(F)(F)F | 0.52 ± 0.04 | 0.51 ± 0.04 | 0.5 ± 0.04
C[N+](=O)[O-] [nitromethane] + CCCC[N+]1(C)CCCC1.O=S(=O)([N-]S(=O)(=O)C(F)(F)F)C(F)(F)F | 0.65 ± 0.04 | 0.58 ± 0.04 | 0.57 ± 0.04
CC(C)CC(C)(C)C [2,2,4-trimethylpentane] + CCCC[N+]1(C)CCCC1.O=S(=O)([N-]S(=O)(=O)C(F)(F)F)C(F)(F)F | 19.2 ± 1.3 | 17.9 ± 1.2 | 17.1 ± 1.2
C1CCCCCC1 [cycloheptane] + CCCC[N+]1(C)CCCC1.O=S(=O)([N-]S(=O)(=O)C(F)(F)F)C(F)(F)F | 23.9 ± 1.6 | 32 ± 2.2 | 41.7 ± 2.9
CCCCCCC [heptane] + CCCC[N+]1(C)CCCC1.O=S(=O)([N-]S(=O)(=O)C(F)(F)F)C(F)(F)F | 19.7 ± 1.4 | 18.4 ± 1.3 | 17.5 ± 1.2
CC(C)CO [2-methyl-1-propanol] + CCCC[N+]1(C)CCCC1.O=S(=O)([N-]S(=O)(=O)C(F)(F)F)C(F)(F)F | 2.37 ± 0.16 | 2.12 ± 0.14 | 1.92 ± 0.13
